Activity calls are given as the source filed them.
Key:
Aminopeptidase N = molecular target: T1, Aminopeptidase N (Plasmodium falciparum FcB1/Columbia, UniProt O96935); assay: P. falciparum M1AAP inhibitors, biochemical, fluorogenic H-Leu-NHMec substrate, 1536-well (AID 1445); set-up: species or system Plasmodium falciparum 3D7, 3D7
T1 sequence (O96935 whole entry): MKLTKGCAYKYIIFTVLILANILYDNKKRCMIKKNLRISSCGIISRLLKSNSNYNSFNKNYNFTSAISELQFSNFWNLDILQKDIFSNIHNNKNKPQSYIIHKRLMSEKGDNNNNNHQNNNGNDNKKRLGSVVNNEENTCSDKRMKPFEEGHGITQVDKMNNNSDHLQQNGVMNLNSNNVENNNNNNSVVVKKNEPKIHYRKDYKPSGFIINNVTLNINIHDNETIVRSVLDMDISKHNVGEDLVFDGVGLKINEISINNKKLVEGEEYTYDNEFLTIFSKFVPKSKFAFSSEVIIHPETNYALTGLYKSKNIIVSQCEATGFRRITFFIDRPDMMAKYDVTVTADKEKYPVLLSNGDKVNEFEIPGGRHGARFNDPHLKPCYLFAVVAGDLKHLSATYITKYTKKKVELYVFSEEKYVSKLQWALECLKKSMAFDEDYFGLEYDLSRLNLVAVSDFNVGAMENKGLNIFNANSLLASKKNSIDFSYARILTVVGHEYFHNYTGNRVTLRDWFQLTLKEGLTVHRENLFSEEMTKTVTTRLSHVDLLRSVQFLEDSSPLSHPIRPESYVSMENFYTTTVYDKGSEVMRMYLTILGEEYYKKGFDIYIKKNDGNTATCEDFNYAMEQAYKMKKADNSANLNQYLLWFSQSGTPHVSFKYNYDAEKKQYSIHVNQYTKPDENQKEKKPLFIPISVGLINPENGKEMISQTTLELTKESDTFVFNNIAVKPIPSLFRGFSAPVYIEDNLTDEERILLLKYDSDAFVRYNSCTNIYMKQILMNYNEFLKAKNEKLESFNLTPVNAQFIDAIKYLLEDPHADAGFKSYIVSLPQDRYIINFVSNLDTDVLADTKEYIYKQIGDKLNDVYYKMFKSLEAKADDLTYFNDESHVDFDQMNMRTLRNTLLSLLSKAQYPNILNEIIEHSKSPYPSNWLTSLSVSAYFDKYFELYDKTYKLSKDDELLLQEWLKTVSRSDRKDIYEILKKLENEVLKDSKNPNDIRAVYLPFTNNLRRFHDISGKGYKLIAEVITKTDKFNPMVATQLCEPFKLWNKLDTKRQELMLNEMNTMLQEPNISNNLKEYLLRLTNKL

[1] = molecular target: Peroxisome proliferator-activated receptor gamma/Nuclear receptor coactivator 2 (Homo sapiens, UniProt P37231); format: functional;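 note: agonist potency for raising coactivator recruitment to the receptor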
Chain of Peroxisome proliferator-activated receptor gamma/Nuclear receptor coactivator 2 (P37231 whole entry): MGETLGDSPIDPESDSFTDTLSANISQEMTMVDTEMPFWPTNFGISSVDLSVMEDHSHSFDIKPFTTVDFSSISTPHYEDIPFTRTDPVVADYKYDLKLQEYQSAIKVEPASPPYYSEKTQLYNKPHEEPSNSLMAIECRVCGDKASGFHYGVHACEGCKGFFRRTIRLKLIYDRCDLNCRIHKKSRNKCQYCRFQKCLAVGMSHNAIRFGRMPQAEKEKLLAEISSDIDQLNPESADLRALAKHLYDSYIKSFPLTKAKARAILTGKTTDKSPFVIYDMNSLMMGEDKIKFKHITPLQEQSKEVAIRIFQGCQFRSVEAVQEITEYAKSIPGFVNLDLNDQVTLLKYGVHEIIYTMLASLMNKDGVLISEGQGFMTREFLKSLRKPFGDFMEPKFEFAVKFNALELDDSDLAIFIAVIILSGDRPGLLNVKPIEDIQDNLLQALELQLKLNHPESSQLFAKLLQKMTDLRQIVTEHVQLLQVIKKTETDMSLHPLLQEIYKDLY
Chain of Peroxisome proliferator-activated receptor gamma/Nuclear receptor coactivator 2 (Q15596 whole entry, further chain): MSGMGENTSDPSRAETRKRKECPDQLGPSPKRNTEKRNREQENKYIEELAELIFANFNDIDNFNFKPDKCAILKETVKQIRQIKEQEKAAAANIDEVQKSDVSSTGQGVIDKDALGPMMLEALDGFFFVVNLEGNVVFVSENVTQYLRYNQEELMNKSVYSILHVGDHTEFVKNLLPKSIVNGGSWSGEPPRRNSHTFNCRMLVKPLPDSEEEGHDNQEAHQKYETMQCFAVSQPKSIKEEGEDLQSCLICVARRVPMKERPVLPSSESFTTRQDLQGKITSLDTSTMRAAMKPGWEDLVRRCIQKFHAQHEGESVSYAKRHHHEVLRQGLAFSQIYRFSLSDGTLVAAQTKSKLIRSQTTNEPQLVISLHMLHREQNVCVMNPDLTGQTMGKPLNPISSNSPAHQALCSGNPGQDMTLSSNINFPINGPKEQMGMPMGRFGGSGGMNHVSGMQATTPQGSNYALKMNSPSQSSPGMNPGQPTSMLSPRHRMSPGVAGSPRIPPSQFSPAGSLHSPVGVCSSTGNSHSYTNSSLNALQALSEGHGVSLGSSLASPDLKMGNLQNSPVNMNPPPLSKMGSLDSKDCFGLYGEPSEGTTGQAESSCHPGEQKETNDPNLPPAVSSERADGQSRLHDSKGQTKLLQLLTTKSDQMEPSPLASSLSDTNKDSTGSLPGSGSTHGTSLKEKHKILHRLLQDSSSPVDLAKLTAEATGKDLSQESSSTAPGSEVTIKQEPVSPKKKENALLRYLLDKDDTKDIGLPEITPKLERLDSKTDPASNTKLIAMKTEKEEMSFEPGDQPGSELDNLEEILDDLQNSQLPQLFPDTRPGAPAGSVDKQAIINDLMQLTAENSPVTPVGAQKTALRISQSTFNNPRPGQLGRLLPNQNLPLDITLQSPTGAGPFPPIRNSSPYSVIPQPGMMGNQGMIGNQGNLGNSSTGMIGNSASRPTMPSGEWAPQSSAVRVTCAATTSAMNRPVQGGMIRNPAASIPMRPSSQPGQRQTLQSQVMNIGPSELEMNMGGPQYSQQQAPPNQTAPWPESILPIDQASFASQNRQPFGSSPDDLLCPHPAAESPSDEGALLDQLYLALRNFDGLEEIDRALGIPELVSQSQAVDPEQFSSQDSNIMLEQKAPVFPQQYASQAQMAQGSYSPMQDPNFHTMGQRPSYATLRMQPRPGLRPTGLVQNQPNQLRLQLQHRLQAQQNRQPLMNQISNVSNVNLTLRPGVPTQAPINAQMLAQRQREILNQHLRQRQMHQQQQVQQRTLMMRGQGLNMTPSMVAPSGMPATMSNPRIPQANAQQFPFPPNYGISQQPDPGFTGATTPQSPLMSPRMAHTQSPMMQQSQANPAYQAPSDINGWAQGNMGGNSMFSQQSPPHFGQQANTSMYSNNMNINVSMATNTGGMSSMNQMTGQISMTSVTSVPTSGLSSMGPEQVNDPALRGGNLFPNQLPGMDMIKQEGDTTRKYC

[2] = molecular target: Peroxisome proliferator-activated receptor gamma/Nuclear receptor coactivator 1 (Homo sapiens, UniProt P37231); format: functional;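 note: agonist potency as compounds enhance coactivator SRC-1 recruitment to PPARgamma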
[3] = molecular target: Peroxisome proliferator-activated receptor gamma/Nuclear receptor coactivator 3 (Homo sapiens, UniProt P37231); format: functional;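 note: agonist potency for raising coactivator recruitment to the receptor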
Chain of Peroxisome proliferator-activated receptor gamma/Nuclear receptor coactivator 3 (P37231 whole entry): as the sequence (P37231 whole entry) above
Chain of Peroxisome proliferator-activated receptor gamma/Nuclear receptor coactivator 3 (Q9Y6Q9 whole entry, further chain): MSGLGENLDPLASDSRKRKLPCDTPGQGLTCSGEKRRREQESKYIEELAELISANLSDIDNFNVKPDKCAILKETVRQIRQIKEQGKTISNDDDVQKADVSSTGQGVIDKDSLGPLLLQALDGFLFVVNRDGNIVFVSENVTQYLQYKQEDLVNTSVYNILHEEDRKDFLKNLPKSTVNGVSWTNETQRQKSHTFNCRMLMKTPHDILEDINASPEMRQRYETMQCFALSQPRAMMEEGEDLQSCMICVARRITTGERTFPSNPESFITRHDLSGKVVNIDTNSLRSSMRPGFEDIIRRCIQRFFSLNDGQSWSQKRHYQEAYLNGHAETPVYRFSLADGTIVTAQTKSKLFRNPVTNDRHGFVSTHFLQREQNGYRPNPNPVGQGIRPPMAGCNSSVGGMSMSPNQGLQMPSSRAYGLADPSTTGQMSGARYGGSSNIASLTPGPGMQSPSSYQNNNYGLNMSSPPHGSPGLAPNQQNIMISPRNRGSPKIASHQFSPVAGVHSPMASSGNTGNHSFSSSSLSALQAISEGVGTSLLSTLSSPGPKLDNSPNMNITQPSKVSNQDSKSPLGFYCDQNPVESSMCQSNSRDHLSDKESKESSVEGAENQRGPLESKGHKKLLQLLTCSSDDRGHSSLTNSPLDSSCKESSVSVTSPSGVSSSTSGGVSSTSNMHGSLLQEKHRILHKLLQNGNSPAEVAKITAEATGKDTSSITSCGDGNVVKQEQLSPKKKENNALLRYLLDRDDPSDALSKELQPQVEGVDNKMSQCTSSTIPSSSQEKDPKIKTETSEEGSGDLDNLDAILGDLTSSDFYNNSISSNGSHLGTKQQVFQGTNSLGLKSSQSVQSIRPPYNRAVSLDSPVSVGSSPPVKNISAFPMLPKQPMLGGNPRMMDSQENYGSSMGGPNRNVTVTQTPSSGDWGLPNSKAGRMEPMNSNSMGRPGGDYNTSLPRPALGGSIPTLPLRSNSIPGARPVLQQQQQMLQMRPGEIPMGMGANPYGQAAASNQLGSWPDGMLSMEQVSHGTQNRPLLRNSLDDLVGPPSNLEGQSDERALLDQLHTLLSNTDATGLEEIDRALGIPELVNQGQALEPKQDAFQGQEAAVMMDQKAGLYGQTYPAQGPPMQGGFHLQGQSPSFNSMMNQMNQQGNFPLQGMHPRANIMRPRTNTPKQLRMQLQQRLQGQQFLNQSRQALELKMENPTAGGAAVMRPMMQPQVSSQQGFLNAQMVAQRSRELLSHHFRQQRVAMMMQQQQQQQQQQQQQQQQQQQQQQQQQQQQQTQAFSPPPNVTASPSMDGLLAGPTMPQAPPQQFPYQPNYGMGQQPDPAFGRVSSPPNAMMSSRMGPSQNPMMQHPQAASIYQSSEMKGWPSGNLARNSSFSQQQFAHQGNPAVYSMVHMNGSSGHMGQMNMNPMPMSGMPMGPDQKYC

NADPH oxidase 1 = molecular target: T2, NADPH oxidase 1 (Homo sapiens, UniProt Q9Y5S8); format: functional, cell-based;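 note: Cell-based assay with luminescence read-out, IC50 derived from inhibitor dose-response curves; intracellular ROS from endogenous NOX1 in intact HT29 colon cancer cells; potency of inhibitors that lower the ROS luminescence signal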
T2 sequence (Q9Y5S8 whole entry): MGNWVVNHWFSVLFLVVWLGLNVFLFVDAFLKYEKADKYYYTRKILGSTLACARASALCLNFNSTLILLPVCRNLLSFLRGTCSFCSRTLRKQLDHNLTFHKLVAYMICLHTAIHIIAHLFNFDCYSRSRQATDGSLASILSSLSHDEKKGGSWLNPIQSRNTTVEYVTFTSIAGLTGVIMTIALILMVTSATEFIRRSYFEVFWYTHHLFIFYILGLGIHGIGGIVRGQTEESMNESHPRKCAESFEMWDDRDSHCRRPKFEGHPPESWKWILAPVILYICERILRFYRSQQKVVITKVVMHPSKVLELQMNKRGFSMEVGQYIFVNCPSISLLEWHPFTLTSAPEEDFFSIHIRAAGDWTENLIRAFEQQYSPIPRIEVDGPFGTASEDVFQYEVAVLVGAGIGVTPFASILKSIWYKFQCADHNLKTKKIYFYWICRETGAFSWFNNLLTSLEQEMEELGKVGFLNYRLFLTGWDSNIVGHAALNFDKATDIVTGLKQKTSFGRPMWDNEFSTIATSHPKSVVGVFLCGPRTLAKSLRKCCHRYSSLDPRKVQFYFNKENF

Leucine aminopeptidase = molecular target: T3, Leucine aminopeptidase (Plasmodium falciparum 3D7, UniProt Q8IL11); assay: P. falciparum M17LAP inhibitors, primary screen, biochemical, fluorogenic H-Leu-NHMec substrate, 1536-well (AID 1619); format: functional
T3 sequence (Q8IL11 whole entry): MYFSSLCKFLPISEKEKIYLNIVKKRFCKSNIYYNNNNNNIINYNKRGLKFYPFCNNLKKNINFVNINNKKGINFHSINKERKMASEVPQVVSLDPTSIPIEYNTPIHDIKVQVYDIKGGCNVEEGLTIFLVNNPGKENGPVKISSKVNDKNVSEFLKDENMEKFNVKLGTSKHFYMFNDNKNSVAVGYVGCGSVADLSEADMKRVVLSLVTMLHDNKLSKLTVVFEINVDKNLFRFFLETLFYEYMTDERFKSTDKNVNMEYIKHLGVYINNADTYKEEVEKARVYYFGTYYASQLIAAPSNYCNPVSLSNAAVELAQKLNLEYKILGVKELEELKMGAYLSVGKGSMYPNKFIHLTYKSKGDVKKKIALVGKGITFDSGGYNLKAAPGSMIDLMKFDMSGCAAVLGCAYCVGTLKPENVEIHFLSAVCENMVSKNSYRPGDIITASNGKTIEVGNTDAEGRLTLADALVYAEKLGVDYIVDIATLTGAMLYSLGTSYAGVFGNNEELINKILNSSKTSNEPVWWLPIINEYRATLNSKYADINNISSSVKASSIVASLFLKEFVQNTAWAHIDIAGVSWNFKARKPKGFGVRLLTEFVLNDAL

[4] = Luminescence Cell-Based Dose Confirmation to Identify Activators of 5'UTR Stem-Loop Driven Alpha-Synuclein mRNA Translation in H4 Neuroglioblastoma Cells. [Related pubchem assays: 1829 (Project Summary), 1814 (Primary HTS)]; format: functional
H4 = assay: Luminescence Cell-Based Dose Response HTS to Identify Activators of 5'UTR Stem-Loop Driven Prion Protein mRNA Translation in H4 Neuroglioblastoma Cells. [Related pubchem assays: 1829 (Project Summary), 1814 (Primary HTS)]; format: functional; conditions: Homo sapiens
[5] = Luminescence Cell-Based Dose Response to Identify Activators of 5'UTR Stem-Loop Driven Prion Protein mRNA Translation in H4-C Neuroglioblastoma Cells. [Related pubchem assays: 1829 (Project Summary), 1814 (Primary HTS)]; format: functional
[6] = Luminescence Cell-Based Dose Confirmation HTS to Identify Activators of 5'UTR Stem-Loop Driven Alpha-Synuclein mRNA Translation in H4 Neuroglioblastoma Cells. [Related pubchem assays: 1829 (Project Summary), 1814 (Primary HTS)]; format: functional
[7] = Luminescence Cell-Based Dose Response to Identify Activators of Luciferase Translation or Activity in H4-C Neuroglioblastoma Cells. [Related pubchem assays: 1829 (Project Summary), 1814 (Primary HTS)]; format: functional
[8] = Luminescence Cell-Based Dose Response HTS to Identify Activators of Luciferase Translation or Activity in H4 […] Cells. [Related pubchem assays: 1829 (Project Summary), 1814 (Primary HTS)]; format: functional
[9] = molecular target: T4, RNA-binding protein pos-1 (Caenorhabditis elegans, UniProt G5EF15); assay: inhibitors of POS-1/mex-3 RNA binding, dose response, biochemical, fluorescence polarization (AID 1964);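 note: purified POS-1 fused to maltose binding protein made in E. coli; potency of compounds blocking POS-1 binding to fluorescent RNA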
T4 sequence (G5EF15 whole entry): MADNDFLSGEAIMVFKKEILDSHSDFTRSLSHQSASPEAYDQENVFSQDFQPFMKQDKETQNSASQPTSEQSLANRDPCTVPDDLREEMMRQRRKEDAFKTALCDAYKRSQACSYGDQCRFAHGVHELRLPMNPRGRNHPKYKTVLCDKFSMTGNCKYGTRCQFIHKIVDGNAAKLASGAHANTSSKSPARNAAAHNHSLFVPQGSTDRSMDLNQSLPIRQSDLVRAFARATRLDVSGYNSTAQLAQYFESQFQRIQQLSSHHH

[10] = molecular target: T5, Zinc finger protein mex-5 (Caenorhabditis elegans, UniProt Q9XUB2); assay: MEX-5/TCR-2 RNA interaction inhibitors, dose response, biochemical, C. elegans, fluorescence polarization (AID 1960)
T5 sequence (Q9XUB2 whole entry): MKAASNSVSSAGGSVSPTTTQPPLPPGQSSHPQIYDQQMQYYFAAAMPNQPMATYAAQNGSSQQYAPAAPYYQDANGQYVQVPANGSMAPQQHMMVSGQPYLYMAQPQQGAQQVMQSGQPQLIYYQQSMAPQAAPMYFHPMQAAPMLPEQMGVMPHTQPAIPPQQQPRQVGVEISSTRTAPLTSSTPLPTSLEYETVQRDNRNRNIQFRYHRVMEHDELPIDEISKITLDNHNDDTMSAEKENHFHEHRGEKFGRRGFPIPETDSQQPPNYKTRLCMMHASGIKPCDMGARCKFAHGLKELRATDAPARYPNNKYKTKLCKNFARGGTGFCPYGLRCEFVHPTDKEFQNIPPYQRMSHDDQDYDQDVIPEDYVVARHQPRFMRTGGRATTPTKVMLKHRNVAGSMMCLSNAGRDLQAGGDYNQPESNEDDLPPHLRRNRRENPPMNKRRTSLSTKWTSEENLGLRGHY

HeLa = assay: HeLa cell cytotoxicity, dose response, cytotoxicity control, 24 h, cherry-picked samples (AID 504726); format: functional, cell-based; conditions: Homo sapiens;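 note: potency for cytotoxicity as loss of luminescence signal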
[11] = inhibitors of Vif binding to APOBEC3G peptide, primary screen, biochemical, TR-FRET, GST-Vif 1-94, biotin-A3G peptide, dose response retest (AID 1117319); format: functional;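 note: TR-FRET signal of purified GST-Vif binding a biotinylated A3G peptide; inhibitors lower the FRET signal by blocking Vif and A3G binding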
Kallikrein-7 = Kallikrein-7 (Homo sapiens, UniProt P49862); assay: Fluorescence Intensity-based biochemical primary high throughput dose response assay to identify activators of kallikrein-7 (K7) zymogen.
Chain of Kallikrein-7 (P49862 whole entry): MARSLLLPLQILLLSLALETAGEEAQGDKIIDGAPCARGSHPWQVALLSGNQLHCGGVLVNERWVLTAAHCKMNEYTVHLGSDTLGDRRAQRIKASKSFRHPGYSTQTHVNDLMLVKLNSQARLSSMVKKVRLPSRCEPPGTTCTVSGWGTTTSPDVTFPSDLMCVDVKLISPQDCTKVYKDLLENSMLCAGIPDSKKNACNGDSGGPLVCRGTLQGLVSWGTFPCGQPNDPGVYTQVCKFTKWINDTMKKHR

[12] = inhibitors of SNCA 5'UTR-driven reporter translation, confirmation, H4 neuroglioma cells, luminescence (AID 1988); format: functional, cell-based
[13] = P. falciparum late gametocyte killing, dose response, luminescence (AID 1117278); format: functional, cell-based;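 note: gametocytes exposed to compound for 24 hours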
[14] = Jurkat T cell cytotoxicity, dose response, cytotoxicity control for P. falciparum gametocyte viability project, luminescence (AID 1117277); format: functional, cell-based;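 note: potency reflects loss of cellular ATP meaning fewer viable cells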
[15] = inhibitors of firefly luciferase expression or activity, dose response, H4 neuroglioma cells, luminescence (AID 1990); format: functional, cell-based
[16] = Luminescence Cell-Based Dose Response HTS to Identify Inhibitors of 5'UTR Stem-Loop Driven Prion Protein mRNA Translation in H4 Neuroglioblastoma Cells. [Related pubchem assays: 1827 (Project Summary), 1813 (Primary HTS)]; format: functional
[17] = HEp-2 cell cytotoxicity, dose response, cytotoxicity control for RSV inhibitor project, HTS (AID 2410); format: functional; conditions: human respiratory syncytial virus

O=C(/C=C/c1cccs1)NC(=S)Nc1ccc(C(=O)O)cc1
IC50 (Aminopeptidase N): 28.8 µM (active)

CCOC(=O)c1c(NC(=O)C(C)Sc2cn(C)c3ccccc23)sc2c1CCC2 (stereo unspecified)
EC50 [1]: 29.5 µM (not active)
EC50 [2]: 29.2 µM (not active)
EC50 [3]: 32.3 µM (not active)

O=C(Oc1cccc(-n2cnnn2)c1)c1sc2ccccc2c1Cl
IC50 (NADPH oxidase 1): > 17 µM (not active)

N#C/C(=C/c1cn(CC(=O)O)c2ccccc12)c1ccc(F)cc1
IC50 (Leucine aminopeptidase): 21.2 µM (active)

CCOC(=O)C1=NN(C(=O)c2cccc(Br)c2)C(O)(C(C)(C)C)C1 (stereo unspecified)
IC50 (Aminopeptidase N): 44 µM (active)

COc1ccc(-c2csc(N3CCSCC3)n2)cc1
EC50 [4]: 0.579 µM (active)
EC50 (H4): 0.112 µM (active)
EC50 [5]: 0.887 µM (active)
EC50 [6]: 1.64 µM (active)
EC50 [7]: 0.375 µM (active)
EC50 [8]: 3.17 µM (active)

CCN1/C(=C2/SC(=S)N(NC(C)=O)C2=O)Sc2ccc(OC)cc21
EC50 [9]: > 300 µM (not active)
EC50 [10]: > 300 µM (not active)
AC50 (HeLa): 122 µM (active)

NNC(=O)c1cnn(-c2ccccc2)c1-n1cccc1
EC50 [1]: > 79.4 µM (not active)
EC50 [2]: > 79.4 µM (not active)
EC50 [3]: > 79.4 µM (not active)

O=c1oc2c(CN3CCCCC3)c(O)ccc2c2c1CCCC2
IC50 (Aminopeptidase N): 65.3 µM (active)

COc1ccc(OC(=O)c2sc3ccccc3c2Cl)cc1
IC50 (NADPH oxidase 1): > 17 µM (not active)

COc1ccccc1C1C=C(c2ccc(C)cc2)Nc2nnnn21 (stereo unspecified)
IC50 [11]: > 100 µM (active)
EC50 (Kallikrein-7): 23.5 µM (inactive)

COC(=O)c1ccc(OCC(O)CN2CCC(C)CC2)cc1 (stereo unspecified)
AC50 (HeLa): 124 µM (active)

COc1cccc(N2CCN(S(=O)(=O)c3ccc4[nH]c(-c5ccccc5)nc4c3)CC2)c1
EC50 [12]: > 120 µM (not active)
IC50 [13]: > 109 µM (inactive)
IC50 [14]: > 83.3 µM (inactive)
EC50 [15]: 29.8 µM (active)
EC50 [16]: > 120 µM (not active)

Cc1cc(/C=C2/C(=O)N(C)C(=S)N2C)c(C)n1C1CC1
CC50 [17]: 40.7 µM (active)
EC50 [4]: 0.343 µM (active)
EC50 (H4): > 120 µM (not active)
EC50 [5]: 0.297 µM (active)
EC50 [7]: 0.337 µM (active)
EC50 [1]: > 79.4 µM (not active)
EC50 [2]: > 79.4 µM (not active)
EC50 [3]: > 79.4 µM (not active)
EC50 [8]: < 0.1 µM (inconclusive)

CCOC(=O)N1CCN(C(=O)C2CCCN(S(=O)(=O)c3ccc(C)cc3)C2)CC1 (stereo unspecified)
IC50 [11]: > 100 µM (active)

O=C(O)c1ccc(/C=N/Nc2ccc(F)cc2F)cc1
IC50 (Leucine aminopeptidase): 99.4 µM (active)

Cc1ccccc1-c1nc(-c2ccccc2)c(-c2ccccc2)[nH]1
IC50 (NADPH oxidase 1): > 17 µM (not active)
